Data as given in patent publication US20240336657A1, “G-ALPHA-S PEPTIDE INHIBITORS AND USES THEREOF” (The Regents of the University of California, priority 2021, published 2024).
Positions of bridges follow the written chain, without caps; N, C: chain ends. Non-standard residues stand in square brackets, D forms with d. Residues, ends and D or L forms follow the SMILES beside them.

Experiments:
[1] = biological target: R201C Gαs (Homo sapiens, UniProt P63092, R201C); assay: Gαs mutant inhibition (FIGS. 1A-1B, FIGS. 6A-6B); assay type: biochemical; conditions: in the presence of Gβγ
R201C Gαs, sequence (P63092 whole entry R201C): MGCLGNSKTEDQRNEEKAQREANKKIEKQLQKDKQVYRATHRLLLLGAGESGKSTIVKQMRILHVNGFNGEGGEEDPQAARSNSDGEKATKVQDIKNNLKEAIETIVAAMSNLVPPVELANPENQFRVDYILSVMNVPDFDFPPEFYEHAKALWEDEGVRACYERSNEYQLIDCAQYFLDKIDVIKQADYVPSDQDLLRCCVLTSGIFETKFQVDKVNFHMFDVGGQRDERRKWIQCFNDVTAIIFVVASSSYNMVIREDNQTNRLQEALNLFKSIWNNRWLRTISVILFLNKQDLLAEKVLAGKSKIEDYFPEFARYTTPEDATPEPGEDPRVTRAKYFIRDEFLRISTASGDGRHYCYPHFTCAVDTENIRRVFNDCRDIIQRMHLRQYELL

[2] = biological target: R201C Gαs/GDP (Homo sapiens, UniProt P63092, R201C); assay: Binding to R201C Gαs/GDP (FIGS. 7A-7B)
R201C Gαs/GDP, sequence (P63092 whole entry R201C): as above

[3] = biological target: Gαs S275L (Homo sapiens, UniProt P63092, S275L); assay: Gαs inhibition with mutation in the cyclic peptide binding site (FIGS. 6A-6B); assay type: biochemical; conditions: in the assay tested
Gαs S275L, sequence (P63092 whole entry S275L): as the sequence (P63092 whole entry R201C) above, with C201R, S275L counted along it

[4] = biological target: WT Gαs (Homo sapiens, UniProt P63092); assay: Gαs inhibition in the presence of Gβγ (FIG. 4, FIGS. 6A-6B); assay type: biochemical
WT Gαs, sequence (P63092 whole entry): as the sequence (P63092 whole entry R201C) above, with C201R counted along it

[5] = biological target: R201H Gαs (Homo sapiens, UniProt P63092, R201H); assay: Gαs mutant inhibition in the presence of Gβγ (FIGS. 6A-6B); assay type: biochemical
R201H Gαs, sequence (P63092 whole entry R201H, the tested form may be a part): as the sequence (P63092 whole entry R201C) above, with C201H counted along it

[6] = biological target: T1, Biotinylated Avi-tagged Gαi1 (residues 2-354 of human Gαi1), GppNHp-bound (human, UniProt P63096 2-354, biotin on the Avi tag (BirA)); assay: BLI, biotinylated Gα on streptavidin biosensors
T1 construct: Loaded with GppNHp; Same polypeptide as m9, other nucleotide state
T1 sequence (P63096 other isoform, or with tags, fused parts or gaps limits assumed): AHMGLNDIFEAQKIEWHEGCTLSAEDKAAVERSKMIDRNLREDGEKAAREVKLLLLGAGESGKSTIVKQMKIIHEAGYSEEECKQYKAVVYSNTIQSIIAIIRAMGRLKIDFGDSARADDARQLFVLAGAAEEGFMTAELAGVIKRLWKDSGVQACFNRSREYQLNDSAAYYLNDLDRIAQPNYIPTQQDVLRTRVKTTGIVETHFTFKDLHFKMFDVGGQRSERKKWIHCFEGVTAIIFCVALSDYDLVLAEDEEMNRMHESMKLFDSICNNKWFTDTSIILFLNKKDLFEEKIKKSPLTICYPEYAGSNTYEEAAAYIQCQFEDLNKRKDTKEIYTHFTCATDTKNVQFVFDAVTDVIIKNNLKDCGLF
Experimental: (§1) BLI experiments were performed using an OctetRED384 instrument from ForteBio. All experiments were performed at 25° C. using BLI buffer (10 mM HEPES pH 7.4, 150 mM NaCl, 1 mM MgCl₂, 0.05% Tween-20, 0.1% DMSO, 0.2 mM GppNHp or GDP). Cyclic peptides were diluted to a series of concentrations in BLI buffer plus 10 μM Biotin. Assays were conducted in Greiner 384well, black, flat bottom polypropylene plates containing the protein solutions, BLI buffer plus 10 μM Biotin for dissociation, and serial dilutions of cyclic peptides to be tested.
(§2) Biotinylated proteins were immobilized on Streptavidin biosensors by dipping sensors into plate wells containing protein solutions at a concentration of 100-150 nM. Protein loading is around 2-3 nm. Sensors loaded with proteins were moved and dipped into wells with BLI buffer plus 10 μM Biotin to block unlabeled Streptavidin. […] Association and dissociation times were carefully determined to ensure full association and dissociation.
(§3) Raw kinetic data collected were processed with the Data Analysis software provided by the manufacturer using single reference subtraction in which buffer-only reference was subtracted (For GN13 analysis). […] The resulting data were analyzed based on a 1:1 binding model from which kₒₙ and koff values were obtained and then Kd values were calculated.

[7] = biological target: T2, Biotinylated Avi-tagged Gαi1 (residues 2-354 of human Gαi1), GDP-bound (human, UniProt P63096 2-354, biotin on the Avi tag (BirA)); assay: BLI, biotinylated Gα on streptavidin biosensors
T2 construct: Loaded with GDP; also called avi-Gαi (FL, WT)
T2 sequence (P63096 other isoform, or with tags, fused parts or gaps limits assumed): as above
Experimental: as §1, §2, §3

[8] = biological target: WT Gαs in HEK293 cell membranes, P63092; assay: cell-based or functional assay
WT Gαs in HEK293 cell membranes, P63092, sequence (P63092 2-394): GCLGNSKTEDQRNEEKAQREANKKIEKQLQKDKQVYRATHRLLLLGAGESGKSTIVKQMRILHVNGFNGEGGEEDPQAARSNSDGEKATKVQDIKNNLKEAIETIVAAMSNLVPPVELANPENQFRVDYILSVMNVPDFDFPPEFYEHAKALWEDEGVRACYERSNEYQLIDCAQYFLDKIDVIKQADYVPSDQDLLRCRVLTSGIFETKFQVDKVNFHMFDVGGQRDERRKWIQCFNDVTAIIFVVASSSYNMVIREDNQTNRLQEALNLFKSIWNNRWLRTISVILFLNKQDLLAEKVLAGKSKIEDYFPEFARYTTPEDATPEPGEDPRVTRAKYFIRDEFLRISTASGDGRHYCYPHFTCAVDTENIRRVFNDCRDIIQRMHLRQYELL

[9] = biological target: WT Gαs (purified, adenylyl cyclase activity assay) (UniProt P63092-2 7-380); assay: cell-based or functional assay
WT Gαs (purified, adenylyl cyclase activity assay), sequence (P63092 other isoform, or with tags, fused parts or gaps limits assumed): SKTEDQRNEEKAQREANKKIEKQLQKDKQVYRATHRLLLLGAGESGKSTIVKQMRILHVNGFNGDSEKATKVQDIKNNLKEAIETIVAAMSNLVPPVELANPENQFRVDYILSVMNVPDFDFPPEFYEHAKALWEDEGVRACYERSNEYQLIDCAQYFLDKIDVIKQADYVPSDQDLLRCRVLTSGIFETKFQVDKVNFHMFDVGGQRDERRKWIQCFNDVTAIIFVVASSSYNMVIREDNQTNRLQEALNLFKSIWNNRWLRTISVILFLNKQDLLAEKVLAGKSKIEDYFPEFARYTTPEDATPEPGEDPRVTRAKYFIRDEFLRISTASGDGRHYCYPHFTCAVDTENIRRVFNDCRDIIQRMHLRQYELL

[10] = biological target: T3, Biotinylated His/Avi-tagged Gαs used in the RaPID selection, GppNHp-bound (human, UniProt P63092 7-394, biotin on the Avi tag (BirA co-expressed)); assay: RaPID comparison selection: peptide-mRNA-cDNA complexes on Gαs-immobilized streptavidin beads, qPCR and sequencing
T3 construct: Immobilized on streptavidin magnetic beads
T3 sequence (P63092 other isoform, or with tags, fused parts or gaps limits assumed): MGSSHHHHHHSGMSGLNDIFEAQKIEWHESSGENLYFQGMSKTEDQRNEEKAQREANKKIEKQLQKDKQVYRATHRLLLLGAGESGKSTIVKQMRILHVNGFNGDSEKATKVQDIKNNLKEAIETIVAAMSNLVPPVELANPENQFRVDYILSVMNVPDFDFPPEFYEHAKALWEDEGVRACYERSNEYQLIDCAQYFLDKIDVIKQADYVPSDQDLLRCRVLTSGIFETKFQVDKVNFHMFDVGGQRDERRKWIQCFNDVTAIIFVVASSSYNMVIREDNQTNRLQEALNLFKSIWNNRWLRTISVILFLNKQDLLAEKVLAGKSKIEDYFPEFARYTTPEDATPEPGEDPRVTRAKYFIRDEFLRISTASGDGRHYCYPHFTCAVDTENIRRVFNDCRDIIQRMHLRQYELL

inhibition of R201C Gαs [1] | binding to R201C Gαs/GDP [2] | inhibition with S275L mutation in the cyclic peptide binding site [3] | inhibition of WT Gαs [4] | inhibition of R201H Gαs [5] | binding result [6] | binding result [7] | IC50, inhibition of ISO-stimulated Gαs activity (cAMP) in HEK293 cell membranes [8] [µM] | IC50, inhibition of Gαs-mediated adenylyl cyclase activation (cAMP production, reconstituted Gαs activity assay) [9] [µM] | fold selectivity for GppNHp-bound over GDP-bound Gαs [10] [fold] | Molecule
inhibits | increased binding | blocked | potently inhibits | inhibits |  |  |  |  |  | CC[C@H](C)[C@@H]1NC(=O)[C@H](Cc2c[nH]cn2)NC(=O)[C@H](Cc2ccc(O)cc2)NC(=O)[C@H]([C@@H](C)CC)NC(=O)[C@H](CO)NC(=O)[C@H](CCC(N)=O)NC(=O)[C@H](Cc2ccccc2)NC(=O)[C@@H](Cc2ccc(O)cc2)NC(=O)CSC[C@@H](C(N)=O)NC(=O)[C@H](CC(C)C)NC(=O)[C@H](CCC(=O)O)NC(=O)CNC(=O)[C@H](Cc2c[nH]c3ccccc23)NC1=O [GR6] ({CH2CO}-[dY]FQSIYHIWGELC-NH2; thioether N-13)
 |  |  |  |  | no binding | no binding | 12.2 | 4.15 | > 100 | {CH2CO}-[dY]FESVYAIWGTLCG-NH2 (thioether N-13; SMILES CC[C@H](C)[C@@H]1NC(=O)[C@H](C)NC(=O)[C@H](Cc2ccc(O)cc2)NC(=O)[C@H](C(C)C)NC(=O)[C@H](CO)NC(=O)[C@H](CCC(=O)O)NC(=O)[C@H](Cc2ccccc2)NC(=O)[C@@H](Cc2ccc(O)cc2)NC(=O)CSC[C@@H](C(=O)NCC(N)=O)NC(=O)[C@H](CC(C)C)NC(=O)[C@H]([C@@H](C)O)NC(=O)CNC(=O)[C@H](Cc2c[nH]c3ccccc23)NC1=O, Residue numbers in the text (E3, V5, I8, W9, T11) fit this order; In the RaPID selections the peptide carried a GSGSGS linker, puromycin and its mRNA/cDNA; also called cyclic peptide GN13) [GN13]
